{"source": "patent EP4700018A1", "about": "“NAV1.8 INHIBITORS, PREPARATION METHOD THEREFOR AND USE THEREOF” (Shanghai Institute of Materia Medica, Chinese Academy of …, priority 2023, dated 2024)", "key": {"[1]": {"target": "human Nav1.8 sodium channel (Homo sapiens, UniProt Q9Y5Y9)", "sequence (Q9Y5Y9 whole entry)": "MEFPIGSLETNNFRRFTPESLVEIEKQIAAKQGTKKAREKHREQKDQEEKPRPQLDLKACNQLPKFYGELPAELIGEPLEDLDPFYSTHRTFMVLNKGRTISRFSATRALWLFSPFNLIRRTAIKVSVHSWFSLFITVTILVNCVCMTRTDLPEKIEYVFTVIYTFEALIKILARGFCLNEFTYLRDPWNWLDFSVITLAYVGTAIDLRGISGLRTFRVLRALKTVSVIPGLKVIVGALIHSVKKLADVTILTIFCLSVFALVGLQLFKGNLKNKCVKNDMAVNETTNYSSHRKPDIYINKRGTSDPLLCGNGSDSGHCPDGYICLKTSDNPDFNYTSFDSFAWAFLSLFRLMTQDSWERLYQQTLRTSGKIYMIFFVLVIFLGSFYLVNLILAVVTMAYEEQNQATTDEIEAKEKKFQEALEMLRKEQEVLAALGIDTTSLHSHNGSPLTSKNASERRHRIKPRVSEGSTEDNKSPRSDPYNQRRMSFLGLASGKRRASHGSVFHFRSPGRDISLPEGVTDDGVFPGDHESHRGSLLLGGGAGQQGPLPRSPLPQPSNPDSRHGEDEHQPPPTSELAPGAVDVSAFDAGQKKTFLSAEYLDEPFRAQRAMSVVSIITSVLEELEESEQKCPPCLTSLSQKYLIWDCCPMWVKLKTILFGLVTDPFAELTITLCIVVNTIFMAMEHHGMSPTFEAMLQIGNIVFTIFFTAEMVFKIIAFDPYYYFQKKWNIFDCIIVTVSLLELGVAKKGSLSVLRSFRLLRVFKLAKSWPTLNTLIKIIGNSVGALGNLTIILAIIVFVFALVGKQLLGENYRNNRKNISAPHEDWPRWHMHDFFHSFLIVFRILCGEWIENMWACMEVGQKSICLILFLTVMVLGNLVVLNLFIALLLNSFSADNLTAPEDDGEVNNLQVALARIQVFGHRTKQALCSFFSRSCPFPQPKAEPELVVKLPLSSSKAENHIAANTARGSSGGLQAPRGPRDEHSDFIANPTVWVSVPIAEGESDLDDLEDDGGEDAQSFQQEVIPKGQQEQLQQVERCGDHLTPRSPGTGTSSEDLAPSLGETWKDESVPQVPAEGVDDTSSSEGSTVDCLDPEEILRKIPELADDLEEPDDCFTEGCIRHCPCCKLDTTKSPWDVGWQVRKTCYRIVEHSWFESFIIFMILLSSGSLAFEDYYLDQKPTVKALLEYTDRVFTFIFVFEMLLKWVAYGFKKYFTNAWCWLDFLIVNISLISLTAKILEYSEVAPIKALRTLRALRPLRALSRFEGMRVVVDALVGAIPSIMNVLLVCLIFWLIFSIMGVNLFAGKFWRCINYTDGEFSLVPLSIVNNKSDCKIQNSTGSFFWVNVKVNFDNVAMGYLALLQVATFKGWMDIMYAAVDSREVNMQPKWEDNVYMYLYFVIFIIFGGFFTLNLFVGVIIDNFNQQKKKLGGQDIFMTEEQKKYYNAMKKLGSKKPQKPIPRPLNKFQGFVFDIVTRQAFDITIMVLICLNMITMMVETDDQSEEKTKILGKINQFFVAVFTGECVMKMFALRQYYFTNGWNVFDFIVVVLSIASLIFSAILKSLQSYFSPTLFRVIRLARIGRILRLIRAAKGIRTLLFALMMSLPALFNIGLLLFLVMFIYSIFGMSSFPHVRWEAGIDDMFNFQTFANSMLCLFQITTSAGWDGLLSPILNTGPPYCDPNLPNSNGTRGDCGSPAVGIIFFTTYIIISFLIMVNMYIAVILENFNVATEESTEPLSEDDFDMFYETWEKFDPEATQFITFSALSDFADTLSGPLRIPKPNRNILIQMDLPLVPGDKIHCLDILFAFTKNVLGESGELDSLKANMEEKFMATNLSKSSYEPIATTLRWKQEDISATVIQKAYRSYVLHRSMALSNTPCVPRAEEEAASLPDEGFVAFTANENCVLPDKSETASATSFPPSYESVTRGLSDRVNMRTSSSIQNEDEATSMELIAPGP", "test": "Blocking activity on sodium channel 1.8 (Nav1.8), whole-cell manual patch clamp", "type": "cell-based", "conditions": "for inhibition at 0.001 µM: read-out: inhibition Percent @1 nM, 1 nM compound; for inhibition at 0.01 µM: read-out: inhibition Percent @10 nM, 10 nM compound"}, "[2]": {"test": "In vivo pharmacokinetics in rats, single intravenous injection or oral gavage", "conditions": "male, SD, plasma, Rat; for Vd: read-out: Vss", "description": "The in vivo pharmacokinetics in rats were evaluated via a single intravenous injection or oral gavage administration in this test example. • 1. Test Methods and Conditions: Male SD rats were fasted overnight and administered a single intravenous dose of 2 mg/kg or 1 mg/kg of the test compound (solvent for Intravenous administration was 5% DMSO/10% Solutol® HS 15/10% EtOH/75% saline, with a dosing volume of 5 mL/kg) and an oral gavage dose of 10 mg/kg or 5 mg/kg of the test compound (solvent for administration was 0.5% CMC-Na, with a dosing volume of 10 mL/kg), respectively. • 2. Sampling Information: Blood samples (0.2 mL) were collected from the retroorbital venous plexus at the designated time points: 0.25, 0.5, 1.0, 2.0, 3.0, 4.0, 6.0, 8.0, and 24 hours before and after dosing (a 5 min sampling point was added for the intravenous administration group), respectively. The samples were placed in EDTA-K2 tubes and centrifuged at 11,000 rpm for 5 minutes. Plasma was separated and frozen at -20°C. • 3. Assay Information: LC/MS/MS was used to determine the concentration of the parent drug in rat/mouse plasma following intravenous and oral gavage administration of the test compound. Pharmacokinetic parameters in rat/mouse plasma were calculated for both administration routes, and the bioavailability of each compound in rats was also calculated. Table 5: Intravenous Pharmacokinetic Information of Representative Compounds"}, "[3]": {"conditions": "intravenous, single dose 2 mg/kg or 1 mg/kg (figure not given)"}}}
{"compound": "Cc1nc(N2CCCC(F)(F)CC2)c(C(=O)Nc2ccc(F)c(C(N)=NO)c2)cc1Cl", "note": "[Compound I-1, 5-chloro-2-(4,4-difluoroazepan-1-yl)-N-(4-fluoro-3-(N'-hydroxyamidino)phenyl)-6-met hylnicotinamide]", "values": [{"measurement": "inhibition at 0.001 µM", "setting": "[1]", "result": 71, "unit": "%"}, {"measurement": "AUC(0-t)", "setting": "[2]; [3]", "result": 1290, "unit": "ng·h/mL"}, {"measurement": "clearance", "setting": "[2]; [3]", "result": 29.6, "unit": "mL/min/kg"}, {"measurement": "half-life", "setting": "[2]; [3]", "result": 0.723, "unit": "h"}, {"measurement": "Vd", "setting": "[2]; [3]", "result": 0.638, "unit": "L/kg"}, {"measurement": "AUC(0-t)", "setting": "[2]; oral gavage, 10mg/kg", "result": 546, "unit": "ng·h/mL"}, {"measurement": "Cmax", "setting": "[2]; oral gavage, 10mg/kg", "result": 433, "unit": "ng/mL"}, {"measurement": "Tmax", "setting": "[2]; oral gavage, 10mg/kg", "result": 0.5, "unit": "h"}, {"measurement": "half-life", "setting": "[2]; oral gavage, 10mg/kg", "result": 1.49, "unit": "h"}, {"measurement": "bioavailability", "setting": "[2]; oral gavage, 10mg/kg", "result": 8.7, "unit": "%"}]}
{"compound": "CC(C)c1nc(N2CCCC(F)(F)CC2)c(C(=O)Nc2ccc(F)c(C(N)=NO)c2)cc1Cl", "note": "[Compound I-24, 5-chloro-2-(4,4-difluoroazepan-1-yl)-N-(4-fluoro-3-(N'-hydroxyamidino)phenyl)-6-isop ropylnicotinamide]", "values": [{"measurement": "inhibition at 0.001 µM", "setting": "[1]", "result": 56, "unit": "%"}, {"measurement": "AUC(0-t)", "setting": "[2]; [3]", "result": 1260, "unit": "ng·h/mL"}, {"measurement": "clearance", "setting": "[2]; [3]", "result": 12.8, "unit": "mL/min/kg"}, {"measurement": "half-life", "setting": "[2]; [3]", "result": 2, "unit": "h"}, {"measurement": "Vd", "setting": "[2]; [3]", "result": 1.38, "unit": "L/kg"}, {"measurement": "AUC(0-t)", "setting": "[2]; oral gavage, 5mg/kg", "result": 1950, "unit": "ng·h/mL"}, {"measurement": "Cmax", "setting": "[2]; oral gavage, 5mg/kg", "result": 244, "unit": "ng/mL"}, {"measurement": "Tmax", "setting": "[2]; oral gavage, 5mg/kg", "result": 2, "unit": "h"}, {"measurement": "half-life", "setting": "[2]; oral gavage, 5mg/kg", "result": 2.73, "unit": "h"}, {"measurement": "bioavailability", "setting": "[2]; oral gavage, 5mg/kg", "result": 30.9, "unit": "%"}]}
{"compound": "NC(=NO)c1cc(NC(=O)c2cc(Cl)c(C(F)(F)F)cc2N2CCCC(F)(F)CC2)ccc1F", "note": "[Compound I-33, 5-chloro-2-(4,4-difluoroazepan-1-yl)-N-(4-fluoro-3-(N'-hydroxyamidino)phenyl)-4-(trifluoromethyl)benzamide]", "values": [{"measurement": "inhibition at 0.001 µM", "setting": "[1]", "result": 86, "unit": "%"}, {"measurement": "AUC(0-t)", "setting": "[2]; [3]", "result": 2270, "unit": "ng·h/mL"}, {"measurement": "clearance", "setting": "[2]; [3]", "result": 7.44, "unit": "mL/min/kg"}, {"measurement": "half-life", "setting": "[2]; [3]", "result": 2.67, "unit": "h"}, {"measurement": "Vd", "setting": "[2]; [3]", "result": 1.16, "unit": "L/kg"}, {"measurement": "AUC(0-t)", "setting": "[2]; oral gavage, 5mg/kg", "result": 8640, "unit": "ng·h/mL"}, {"measurement": "Cmax", "setting": "[2]; oral gavage, 5mg/kg", "result": 623, "unit": "ng/mL"}, {"measurement": "Tmax", "setting": "[2]; oral gavage, 5mg/kg", "result": 6, "unit": "h"}, {"measurement": "half-life", "setting": "[2]; oral gavage, 5mg/kg", "result": 5.12, "unit": "h"}, {"measurement": "bioavailability", "setting": "[2]; oral gavage, 5mg/kg", "result": 38.9, "unit": "%"}]}
{"compound": "NC(=NO)c1cc(NC(=O)c2cc(Cl)c(C(F)(F)F)nc2N2CCCC(F)(F)CC2)ccc1F", "note": "[Compound I-36, 5-chloro-2-(4,4-difluoroazepan-1-yl)-N-(4-fluoro-3-(N'-hydroxyamidino)phenyl)-6-(trifluoromethyl)nicotinamide]", "values": [{"measurement": "inhibition at 0.001 µM", "setting": "[1]", "result": 50, "unit": "%"}, {"measurement": "AUC(0-t)", "setting": "[2]; [3]", "result": 4440, "unit": "ng·h/mL"}, {"measurement": "clearance", "setting": "[2]; [3]", "result": 3.91, "unit": "mL/min/kg"}, {"measurement": "half-life", "setting": "[2]; [3]", "result": 3.28, "unit": "h"}, {"measurement": "Vd", "setting": "[2]; [3]", "result": 0.823, "unit": "L/kg"}, {"measurement": "AUC(0-t)", "setting": "[2]; oral gavage, 5mg/kg", "result": 4410, "unit": "ng·h/mL"}, {"measurement": "Cmax", "setting": "[2]; oral gavage, 5mg/kg", "result": 386, "unit": "ng/mL"}, {"measurement": "Tmax", "setting": "[2]; oral gavage, 5mg/kg", "result": 4.3, "unit": "h"}, {"measurement": "half-life", "setting": "[2]; oral gavage, 5mg/kg", "result": 3.15, "unit": "h"}, {"measurement": "bioavailability", "setting": "[2]; oral gavage, 5mg/kg", "result": 38.9, "unit": "%"}]}
{"compound": "N=C(N)c1cc(NC(=O)c2cc(Cl)c(C(F)F)nc2C2CCCC(F)(F)CC2)ccc1F", "note": "(centres unmarked) [Compound I-39, N-(3-amidino-4-fluorophenyl)-5-chloro-2-(4,4-difluorocycloheptan-1-yl)-6-difluorome thylnicotinamide]", "values": [{"measurement": "inhibition at 0.001 µM", "setting": "[1]", "result": 51, "unit": "%"}]}
{"compound": "[2H]Cc1nc(N2CCCC(F)(F)CC2)c(C(=O)Nc2ccc(F)c(C(N)=NO)c2)cc1Cl", "note": "[Compound I-42, 5-chloro-2-(4,4-difluoroazepan-1-yl)-N-(4-fluoro-3-(N'-hydroxyamidino)phenyl)-6-deu teromethylnicotinamide]", "values": [{"measurement": "inhibition at 0.001 µM", "setting": "[1]", "result": 65, "unit": "%"}]}
{"compound": "CN(C)c1nc(N2CCCC(F)(F)CC2)c(C(=O)Nc2ccc(F)c(C(N)=NO)c2)cc1Cl", "note": "[Compound I-43, 5-chloro-2-(4,4-difluoroazepan-1-yl)-6-(dimethylamino)-N-(4-fluoro-3-(N'-hydroxyamidino)phenyl)nicotinamide]", "values": [{"measurement": "inhibition at 0.001 µM", "setting": "[1]", "result": 55, "unit": "%"}]}
{"compound": "NC(=NO)c1cc(NC(=O)c2cc(Cl)c(CF)nc2N2CCCC(F)(F)CC2)ccc1F", "note": "[Compound I-44, 5-chloro-2-(4,4-difluoroazepan-1-yl)-N-(4-fluoro-3-(N'-hydroxyamidino)phenyl)-6-(fluoromethyl)nicotinamide]", "values": [{"measurement": "inhibition at 0.001 µM", "setting": "[1]", "result": 32, "unit": "%"}]}
{"compound": "CCc1nc(N2CCCC(F)(F)CC2)c(C(=O)Nc2ccc(F)c(C(N)=NO)c2)cc1Cl", "note": "[Compound I-45, 5-chloro-2-(4,4-difluoroazepan-1-yl)-6-ethyl-N-(4-fluoro-3-(N'-hydroxyamidino)pheny I)nicotinamide]", "values": [{"measurement": "inhibition at 0.001 µM", "setting": "[1]", "result": 94, "unit": "%"}]}
{"compound": "NC(=NO)c1cc(NC(=O)c2cc(Cl)c(N3CCCC3)nc2N2CCCC(F)(F)CC2)ccc1F", "note": "[Compound I-46, 5-chloro-2-(4,4-difluoroazepan-1-yl)-N-(4-fluoro-3-(N'-hydroxyamidino)phenyl)-6-(pyrrolidinyl)nicotinamide]", "values": [{"measurement": "inhibition at 0.01 µM", "setting": "[1]", "result": 50, "unit": "%"}]}
{"compound": "NC(=NO)c1cc(NC(=O)c2cc(Cl)c(Cl)cc2N2CCCC(F)(F)CC2)ccc1F", "note": "[Compound I-47, 4,5-dichloro-2-(4,4-difluoroazepan-1-yl)-N-(4-fluoro-3-(N'-hydroxyamidino)phenyl)be nzamide]", "values": [{"measurement": "inhibition at 0.01 µM", "setting": "[1]", "result": 80, "unit": "%"}]}
{"compound": "NC(=NO)c1cccc(NC(=O)c2cc(Cl)c(C(F)(F)F)cc2N2CCCC(F)(F)CC2)c1", "note": "[Compound I-48, 5-chloro-2-(4,4-difluoroazepan-1-yl)-N-(3-(N'-hydroxyamidino)phenyl)-4-trifluoromet hylbenzamide]", "values": [{"measurement": "inhibition at 0.01 µM", "setting": "[1]", "result": 77, "unit": "%"}]}
{"compound": "NC(=NO)c1cccc(NC(=O)c2c(N3CCCC(F)(F)CC3)ccc(Cl)c2C(F)(F)F)c1", "note": "[Compound I-49, 5-chloro-2-(4,4-difluoroazepan-1-yl)-N-(3-(N'-hydroxyamidino)phenyl)-6-(trifluoromethyl)benzamide]", "values": [{"measurement": "inhibition at 0.01 µM", "setting": "[1]", "result": 77, "unit": "%"}]}
{"compound": "COc1c([C@H]2[C@H](C(=O)Nc3ccnc(C(N)=O)c3)O[C@@](C)(C(F)(F)F)[C@H]2C)ccc(F)c1F", "note": "[VX-548, reference compound]", "values": [{"measurement": "IC50", "setting": "[1]", "result": "0.34 ± 0.04", "unit": "nM"}, {"measurement": "AUC(0-t)", "setting": "[2]; [3]", "result": 804, "unit": "ng·h/mL"}, {"measurement": "clearance", "setting": "[2]; [3]", "result": 20.7, "unit": "mL/min/kg"}, {"measurement": "half-life", "setting": "[2]; [3]", "result": 0.67, "unit": "h"}, {"measurement": "Vd", "setting": "[2]; [3]", "result": 0.92, "unit": "L/kg"}, {"measurement": "AUC(0-t)", "setting": "[2]; oral gavage, 5mg/kg", "result": 518, "unit": "ng·h/mL"}, {"measurement": "Cmax", "setting": "[2]; oral gavage, 5mg/kg", "result": 157, "unit": "ng/mL"}, {"measurement": "Tmax", "setting": "[2]; oral gavage, 5mg/kg", "result": 0.5, "unit": "h"}, {"measurement": "half-life", "setting": "[2]; oral gavage, 5mg/kg", "result": 2.68, "unit": "h"}, {"measurement": "bioavailability", "setting": "[2]; oral gavage, 5mg/kg", "result": 14, "unit": "%"}]}
